# In paper PMC8523698, “Preclinical characterization of an intravenous coronavirus 3CL protease inhibitor for the potential treatment of COVID19” (Nature Communications, 2021):
# Values joined by “and” are separate entries in the source; they are usually repeats but may differ in a detail not shown here. Equal entries are not always repeated. Where two headings read alike, the source gives them in different places.
# What was measured:
# [1] = Cytotoxicity in MRC-5 cells; conditions: human
# HKU9-CoV 3CL^pro = HKU9-CoV 3CL^pro (Bat coronavirus HKU9, UniProt P0C6W5); format: biochemical; conditions: for Initial Velocity: triplicate, listed as Compound F2
# [2] = Rat 4-day continuous intravenous infusion exploratory non-GLP toxicity study
# Human Caspase 2 = Human Caspase 2 (Homo sapiens, UniProt P42575); test: Mammalian protease panel; format: biochemical
# Human Caspase 2, sequence (P42575 170-325 limits assumed): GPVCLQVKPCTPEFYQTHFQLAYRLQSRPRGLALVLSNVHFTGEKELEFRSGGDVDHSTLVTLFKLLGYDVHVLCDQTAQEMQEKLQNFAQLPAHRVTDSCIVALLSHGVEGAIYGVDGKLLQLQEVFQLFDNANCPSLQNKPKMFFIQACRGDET
# Human Caspase 2, sequence (P42575 348-452 limits assumed): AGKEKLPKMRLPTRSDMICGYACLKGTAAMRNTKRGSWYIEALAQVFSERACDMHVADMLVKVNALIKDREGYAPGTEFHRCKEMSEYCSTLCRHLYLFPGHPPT
# HKU9-CoV 3CL^pro, sequence (P0C6W5 3104-3409 limits assumed): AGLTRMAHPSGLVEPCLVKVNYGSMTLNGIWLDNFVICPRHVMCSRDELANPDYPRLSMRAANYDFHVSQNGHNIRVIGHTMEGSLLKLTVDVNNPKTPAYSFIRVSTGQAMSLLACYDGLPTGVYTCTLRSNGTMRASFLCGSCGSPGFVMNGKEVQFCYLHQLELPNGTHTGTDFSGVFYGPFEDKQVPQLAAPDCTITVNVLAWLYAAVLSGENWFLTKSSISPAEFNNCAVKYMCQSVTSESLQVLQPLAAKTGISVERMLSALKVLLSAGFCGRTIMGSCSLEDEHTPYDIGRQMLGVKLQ
smiles,measurement,setting,value
COc1cccc2[nH]c(C(=O)N[C@@H](CC(C)C)C(=O)N[C@@H](C[C@@H]3CCNC3=O)C(=O)COP(=O)(O)O)cc12 [PF-07304814],CC50 at 5 days,[1],> 100 µM
same,CC50 at 5 days,[1]; MRC-5 cells,> 100 µM
same,CC50 at 5 days,"[1]; MRC-5 cells, with CP-100356 (efflux inhibitor) 0.5 µM",> 100 µM
COc1cccc2[nH]c(C(=O)N[C@@H](CC(C)C)C(=O)N[C@@H](C[C@@H]3CCNC3=O)C(=O)CO)cc12 [PF-00835231],Initial Velocity,HKU9-CoV 3CL^pro; [Compound F2] 1.95312 nM,0.9878 and 0.9959 and 0.983
same,Initial Velocity,HKU9-CoV 3CL^pro; [Compound F2] 3.90625 nM,0.9913 and 0.9924 and 0.95
same,Initial Velocity,HKU9-CoV 3CL^pro; [Compound F2] 7.8125 nM,0.9224 and 0.9795 and 0.9137
same,Initial Velocity,HKU9-CoV 3CL^pro; [Compound F2] 20 nM,0.886 and 0.9243 and 0.93
same,Initial Velocity,HKU9-CoV 3CL^pro; [Compound F2] 30 nM,0.8569 and 0.8538 and 0.879
same,Initial Velocity,HKU9-CoV 3CL^pro; [Compound F2] 31.25 nM,0.8589 and 0.8929 and 0.8492
same,Initial Velocity,HKU9-CoV 3CL^pro; [Compound F2] 40 nM,0.8139 and 0.8202 and 0.8114
same,Initial Velocity,HKU9-CoV 3CL^pro; [Compound F2] 50 nM,0.7816 and 0.7894 and 0.7901
same,Initial Velocity,HKU9-CoV 3CL^pro; [Compound F2] 60 nM,0.7312 and 0.6789 and 0.7455
same,Initial Velocity,HKU9-CoV 3CL^pro; [Compound F2] 62.5 nM,0.7579 and 0.8162 and 0.7406
same,Initial Velocity,HKU9-CoV 3CL^pro; [Compound F2] 80 nM,0.682 and 0.6702 and 0.6841
same,Initial Velocity,HKU9-CoV 3CL^pro; [Compound F2] 100 nM,0.6302 and 0.62 and 0.5903
same,Initial Velocity,HKU9-CoV 3CL^pro; [Compound F2] 200 nM,0.2879 and 0.279 and 0.2522
same,Initial Velocity,HKU9-CoV 3CL^pro; [Compound F2] 1000 nM,0.000466 and 0.000256
same,Ki,HKU9-CoV 3CL^pro; mean ± SEM,0.00074 ± 0.00068 µM
same,tolerated dose (highest feasible dose tested),"[2]; male rats, 4 days continuous IV infusion",246 mg/kg/day
same,cholesterol vs controls,[2]; non-adverse,1.3 x
same,mean triglycerides vs controls,[2]; non-adverse,1.9-3.6 x
same,phosphorus vs controls,[2]; non-adverse,1.1 x
same,IC50,Human Caspase 2,> 33 µM
